Where “and” joins values, the source holds several entries; their conditions need not be identical. Identical values can stand only once.
System: K24384-001-R-PDC complex spheroids, viability
Assay: Anticancer human tumor K24384-001-R-PDC patient-derived pancreatic adenocarcinoma cell line growth inhibition [GQUAD]
Conditions: for viability, T/C: stronger effect = lower value; active means viability on the fitted dose curve at most 10% of control; inactive means the rest
Description: DNA G-quadruplex Stabilizer Agents in Combinations in Complex Spheroids
A high-throughput screen of multi-cell type tumor spheroids was designed to identify active combinations of DNA G-quadruplex stabilizer agents and targeted small molecules. Complex spheroids include a stromal component modeled by human endothelial cells (HUVEC) and fibroblasts modeled by human mesenchymal stem cells (MSCs). The concentration ranges selected for each drug and investigational agent were based upon clinically achievable concentrations if the clinical Cmax of the agent was known.
Compounds. The drugs and investigational agents: pidnarulex (CX-5461; NSC782164), APTO-253 (NSC789042), BRACO-19 (NSC847499), peposertib (NSC802822), ceralasertib (NSC780249), elimusertib (NSC800525), camonsertib (NSC841442), AZD-1390 (NSC803789), olaparib (NSC753686), talazoparib (NSC767125), ART-558 (NSC835418), sotorasib (NSC818433), MRTX-1133 (NSC836407), SN-38 (NSC673596), topotecan (NSC609699), etoposide (NSC141540), doxorubicin (NSC123127), gemcitabine (NSC613327), 5-fluorouracil (NSC19893), paclitaxel (NSC125973), vemurafenib (NSC761431), panobinostat (NSC761190), R-306465 (JNJ-16241199; NSC773264), adavosertib (NSC754352), TP-3654 (NSC805149), carboplatin (NSC241240), KSQ-4279 (NSC840948), and staurosporine (NSC755774) were obtained from the National Cancer Institute (NCI) Developmental Therapeutics Program Chemical Repository (34). The FDA-approved anticancer drug set is available from the NCI Developmental Therapeutics Program. […] The stock solutions were prepared in dimethyl sulfoxide (DMSO, Sigma-Aldrich, St. Louis, MO, cat. D2650) at 800-fold the tested concentration and stored at -70 degrees C prior to their use. All drugs and investigational agents were tested over a range starting from a high concentration at or near the clinical Cmax and decreasing in half-log increments. If the clinical Cmax for an agent had not been determined, the highest concentration tested was 10 microM.
2.3 Cell Culture. All cells were maintained in an incubator at 37 degrees C and 5% CO2 with 95% humidity. The PDC lines were cultured according to standard operating procedures established by the NCI PDMR. All PDCs were thawed and cultured in Matrigel-coated flasks prepared with a working solution of 1X Ham's F-12 nutrient mix, without supplementation (Invitrogen, cat. 11765054), 100 U/mL penicillin-streptomycin (Invitrogen, cat. 15140122), and 2.5% Matrigel (Corning Inc., cat. 354248) for the first three passages. The 857933-349-R-J2-PDC line was cultured in 6C/Colon 1B media, which includes advanced DMEM/F-12 (Thermo Fisher Scientific, cat. 12634028), 10 mM HEPES (Thermo Fisher Scientific, cat. 15630080), 1X GlutaMAX supplement (Thermo Fisher Scientific, cat. 35050061), 0.1 mg/mL primocin (InvivoGen, cat. ant-pm-2), 10% defined fetal bovine serum, heat inactivated (HyClone Laboratories Inc., cat. SH30070.03HI), 50% L-WRN conditioned media (ATCC, cat. CRL-3276), 1.25 mM N-Acetyl-L-cysteine (Sigma-Aldrich, cat. A9165), 10 mM nicotinamide (Sigma-Aldrich, cat. N0636), 1X B-27 supplement (Thermo Fisher Scientific, cat. 17504044), 1X N-2 supplement (Thermo Fisher Scientific, cat. 17502048), 10 microM Y-27632 dihydrochloride (Tocris Bioscience, cat. 1254), and 50 ng/mL human EGF recombinant protein (Thermo Fisher Scientific, cat. PHG0311). The 485176-168-R4-J1-PDC line was cultured in Panc media, which includes all 6C/Colon 1B media components plus 100 ng/mL human FGF-10 (Thermo Fisher Scientific, cat. 100-26), 500 nM SB-431542 (Selleckchem, cat. S1067), and gastrin (Tocris, cat. 3006).
[…]
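Further: spheroids exposed to compounds for seven days.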

Nc1ccn(C2OC(CO)C(O)C2(F)F)c(=O)n1 (centres undefined)
inactive: viability, T/C (compound 0.0316 µM) 84.3% and 75.7% and 81.2% | viability, T/C (compound 0.1 µM) 63.9% and 51.3% and 63.6% | viability, T/C (compound 0.316 µM) 50% and 35.2% and 65.7% | viability, T/C (compound 1 µM) 34.6% and 28.7% and 32.3% | viability, T/C (compound 3.16 µM) 21.7% and 26.4% and 21.4% | viability, T/C (compound 10 µM) 15.8% and 21.2% and 19.7%
285 nM and 108 nM and 531 nM: IC50 (curve of compound)

COc1cc(C2c3cc4c(cc3C(OC3OC5COC(C)OC5C(O)C3O)C3COC(=O)C23)OCO4)cc(OC)c1O (centres undefined)
inactive: viability, T/C (compound 0.0316 µM) 103% and 98.4% and 102% | viability, T/C (compound 0.1 µM) 98% (2×) and 98.4% | viability, T/C (compound 0.316 µM) 75.9% and 85.9% and 71.3% | viability, T/C (compound 1 µM) 48.9% and 52.9% and 48.6% | viability, T/C (compound 3.16 µM) 37.1% and 41.1% and 35.2% | viability, T/C (compound 10 µM) 30.8% and 35.4% and 31.2%
964 nM and 1320 nM and 884 nM: IC50 (curve of compound)

CC1COCCN1c1cc(C2(O)CC3CCC(C2)O3)c2cnn(-c3ccn[nH]3)c2n1 (centres undefined)
inactive: viability, T/C (compound 0.0316 µM) 80.5% and 78% and 64.4% | viability, T/C (compound 0.1 µM) 43.7% and 56.4% and 38.6% | viability, T/C (compound 0.316 µM) 40% and 45.8% and 33.4% | viability, T/C (compound 1 µM) 29.1% and 26.3% and 24.6% | viability, T/C (compound 3.16 µM) 24.8% and 25.7% and 32.5% | viability, T/C (compound 10 µM) 13.2% and 19% and 15%
108 nM and 178 nM and 64.2 nM: IC50 (curve of compound)

Cc1cccc(N(C)C(=O)C2C(O)CCN2c2nc(C)cc(C(F)(F)F)c2C#N)c1 (centres undefined)
inactive: viability, T/C (compound 0.0316 µM) 111% and 106% and 99% | viability, T/C (compound 0.1 µM) 106% and 98% and 82% | viability, T/C (compound 0.316 µM) 122% and 102% and 99.9% | viability, T/C (compound 1 µM) 91.4% and 86.8% and 108% | viability, T/C (compound 3.16 µM) 115% and 88% and 114% | viability, T/C (compound 10 µM) 115% and 106% and 127%
> 10000 nM: IC50 (curve of compound)

CC(=O)O[C@H]1C(=O)[C@@]2(C)[C@H]([C@H](OC(=O)c3ccccc3)[C@]3(O)C[C@H](OC(=O)[C@H](O)[C@@H](NC(=O)c4ccccc4)c4ccccc4)C(C)=C1C3(C)C)[C@]1(OC(C)=O)CO[C@@H]1C[C@@H]2O
< 31.6 nM: IC50 (curve of compound)
inactive: viability, T/C (compound 0.0316 µM) 33.8% and 31.3% and 53.9% | viability, T/C (compound 0.1 µM) 25.3% and 22% and 20.2% | viability, T/C (compound 0.316 µM) 23.4% and 18.5% and 29.6% | viability, T/C (compound 1 µM) 20.5% and 21.1% and 28.1% | viability, T/C (compound 3.16 µM) 25.6% and 20.9% and 26.2% | viability, T/C (compound 10 µM) 28.5% and 28.9% and 37.3%

Nc1ccn(C2OC(CO)C(O)C2(F)F)c(=O)n1 (centres undefined) + Cc1cnc(CNC(=O)c2c(=O)c3ccc(N4CCCN(C)CC4)nc3n3c2sc2ccccc23)cn1
431 nM: IC50 (curve of first compound, second compound 0.0316 µM)
inactive: viability, T/C (second compound 0.0316 µM, first compound 0.0316 µM) 68% | viability, T/C (second compound 0.0316 µM, first compound 0.1 µM) 64.8% | viability, T/C (second compound 0.0316 µM, first compound 0.316 µM) 58.6% | viability, T/C (second compound 0.0316 µM, first compound 1 µM) 26.7% | viability, T/C (second compound 0.0316 µM, first compound 3.16 µM) 28.4% | viability, T/C (second compound 0.0316 µM, first compound 10 µM) 22.3% | viability, T/C (second compound 0.1 µM, first compound 0.0316 µM) 52.5% | viability, T/C (second compound 0.1 µM, first compound 0.1 µM) 54% | viability, T/C (second compound 0.1 µM, first compound 0.316 µM) 56.3% | viability, T/C (second compound 0.1 µM, first compound 1 µM) 32.5% | viability, T/C (second compound 0.1 µM, first compound 3.16 µM) 27.2% | viability, T/C (second compound 0.1 µM, first compound 10 µM) 20.9% | viability, T/C (second compound 0.316 µM, first compound 0.0316 µM) 45.8% | viability, T/C (second compound 0.316 µM, first compound 0.1 µM) 45.6% | viability, T/C (second compound 0.316 µM, first compound 0.316 µM) 38.3% | viability, T/C (second compound 0.316 µM, first compound 1 µM) 36.9% | viability, T/C (second compound 0.316 µM, first compound 3.16 µM) 32.2% | viability, T/C (second compound 0.316 µM, first compound 10 µM) 17.6% | viability, T/C (second compound 1 µM, first compound 0.0316 µM) 40.7% | viability, T/C (second compound 1 µM, first compound 0.1 µM) 43.5% | viability, T/C (second compound 1 µM, first compound 0.316 µM) 39.7% | viability, T/C (second compound 1 µM, first compound 1 µM) 41% | viability, T/C (second compound 1 µM, first compound 3.16 µM) 31.8% | viability, T/C (second compound 1 µM, first compound 10 µM) 16.2% | viability, T/C (second compound 3.16 µM, first compound 0.0316 µM) 41.3% | viability, T/C (second compound 3.16 µM, first compound 0.1 µM) 43.1% | viability, T/C (second compound 3.16 µM, first compound 0.316 µM) 32.3% | viability, T/C (second compound 3.16 µM, first compound 1 µM) 36% | viability, T/C (second compound 3.16 µM, first compound 3.16 µM) 33.8% | viability, T/C (second compound 3.16 µM, first compound 10 µM) 12.2% | viability, T/C (second compound 10 µM, first compound 0.0316 µM) 29.4% | viability, T/C (second compound 10 µM, first compound 0.1 µM) 19.3% | viability, T/C (second compound 10 µM, first compound 0.316 µM) 28.6% | viability, T/C (second compound 10 µM, first compound 1 µM) 19.8%
active: viability, T/C (second compound 10 µM, first compound 3.16 µM) 0.34% | viability, T/C (second compound 10 µM, first compound 10 µM) 0.27%
< 31.6 nM: IC50 (curve of first compound, second compound 0.316 µM) | IC50 (curve of first compound, second compound 1 µM) | IC50 (curve of first compound, second compound 3.16 µM) | IC50 (curve of first compound, second compound 10 µM)
396 nM: IC50 (curve of first compound, second compound 0.1 µM)

CC1COCCN1c1cc(C2(S(C)(=N)=O)CC2)nc(-c2ccnc3[nH]ccc23)n1 (centres undefined)
inactive: viability, T/C (compound 0.0316 µM) 92.8% and 89.6% and 108% | viability, T/C (compound 0.1 µM) 96% and 93.6% and 99.5% | viability, T/C (compound 0.316 µM) 107% and 102% and 114% | viability, T/C (compound 1 µM) 65.9% and 56.5% and 74.8% | viability, T/C (compound 3.16 µM) 34.9% and 32.8% and 40% | viability, T/C (compound 10 µM) 33% (2×) and 26.7%
1770 nM and 1320 nM and 2110 nM: IC50 (curve of compound)

From PubChem BioAssay AID2060483 (Molecular Pharmacology Branch, DTP, NCI, 2025)
